Experimental data from patent US20240158446A1, “CYCLIC COMPOUND HAVING SELECTIVE INHIBITORY ACTION ON KRAS OVER HRAS AND NRAS” (CHUGAI SEIYAKU KABUSHIKI KAISHA, priority 2021, published 2024).
Where two headings read alike, the source gives them in different places. *1 amine or outer side, *2 acyl side, *3 side chain or, on linkers, in order; H or OH if unused. Where a SMILES comes first, the peptide text is derived from it. Bridges are numbered along the chain shown (N, C = ends). [ ]: non-standard residue; d: D form. The star is where a group is joined. hPhe(3-Cl-4-CF3) = N[C@@H](CCc1ccc(C(F)(F)F)c(Cl)c1)C(=O)O; NPrPhe(4-CF3) = CCCN[C@@H](Cc1ccc(C(F)(F)F)cc1)C(=O)O; X18 = Cc1ccc(C[C@@H](C(=O)[*:2])N(CC(C)C)[*:1])cc1; NMeGly(cPent) = CN[C@H](C(=O)O)C1CCCC1; Hyp = O=C(O)[C@@H]1C[C@@H](O)CN1; NMeD = CN[C@@H](CC(=O)O)C(=O)O; NMeL = CN[C@@H](CC(C)C)C(=O)O; Morpholide = C1CN(*)CCO1; NMeA = CN[C@@H](C)C(=O)O; Ac5c = NC1(C(=O)O)CCCC1; Aze = O=C(O)[C@@H]1CCN1; Ac4c = NC1(C(=O)O)CCC1; Sar = CNCC(=O)O

Key:
[1] = biological target: GDP-bound HRAS wild-type protein (Homo sapiens, UniProt P01112); assay: Binding to HRAS by surface plasmon resonance (SPR), Single Cycle Kinetics; conditions: SPR, GDP-bound HRAS wild-type protein vs GDP-bound KRAS wild-type protein
[2] = biological target: GDP-bound KRAS wild-type protein (Homo sapiens, UniProt P01116); assay: Binding to KRAS by surface plasmon resonance (SPR), Single Cycle Kinetics; conditions: GDP-bound KRAS wild-type protein, read-out: KRAS KD
[3] = biological target: GDP-bound NRAS wild-type protein (Homo sapiens, UniProt P01111); assay: Binding to NRAS by surface plasmon resonance (SPR), Single Cycle Kinetics; conditions: SPR, GDP-bound NRAS wild-type protein vs GDP-bound KRAS wild-type protein
[4] = SPR Single Cycle Kinetics, 1:1 binding model

Chain of GDP-bound HRAS wild-type protein (P01112 whole entry): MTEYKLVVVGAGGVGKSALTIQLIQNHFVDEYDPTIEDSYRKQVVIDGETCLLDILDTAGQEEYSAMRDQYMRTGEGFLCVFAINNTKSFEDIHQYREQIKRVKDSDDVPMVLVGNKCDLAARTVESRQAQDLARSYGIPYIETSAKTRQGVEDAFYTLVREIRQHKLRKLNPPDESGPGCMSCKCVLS
Chain of GDP-bound NRAS wild-type protein (P01111 whole entry): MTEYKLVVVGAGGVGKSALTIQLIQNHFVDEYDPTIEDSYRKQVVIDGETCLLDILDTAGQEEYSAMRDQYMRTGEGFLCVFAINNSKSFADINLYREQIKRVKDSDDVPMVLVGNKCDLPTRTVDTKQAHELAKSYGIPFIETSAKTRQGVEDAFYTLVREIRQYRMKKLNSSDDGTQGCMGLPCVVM
Chain of GDP-bound KRAS wild-type protein (P01116 whole entry): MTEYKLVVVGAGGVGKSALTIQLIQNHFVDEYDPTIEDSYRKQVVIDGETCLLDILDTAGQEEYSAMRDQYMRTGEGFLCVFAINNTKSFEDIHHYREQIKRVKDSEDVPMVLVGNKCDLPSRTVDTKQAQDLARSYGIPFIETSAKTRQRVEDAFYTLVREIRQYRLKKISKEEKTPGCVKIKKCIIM

Structure (SMILES) | HRAS/KRAS (ratio of KD value for HRAS to KD value for KRAS) [1] | Kd [2, 4] | NRAS/KRAS (ratio of KD value for NRAS to KD value for KRAS) [3] | Kd ([2]; SPR, Single Cycle Kinetics) | further results
CC[C@H](C)[C@@H]1NC(=O)[C@H](CC(C)C)N(C)C(=O)C[C@@H](C(=O)N2CCOCC2)N(C)C(=O)[C@H](C2CCCC2)N(C)C(=O)C2(CCCC2)NC(=O)[C@@H]2CCCN2C(=O)[C@H](CCc2ccc(C(F)(F)F)c(Cl)c2)NC(=O)CN(C)C(=O)[C@H](Cc2ccc(C)cc2)N(CC(C)C)C(=O)CN(C)C(=O)CN(C)C1=O [PP0063] ([NMeL]I[Sar][Sar][X18][Sar][hPhe(3-Cl-4-CF3)]P[Ac5c][NMeGly(cPent)][NMeD]-Morpholide; lactam N-11) | C (A compound having a KD ratio of 0.1 or more and less than 3 is denoted as C) | 2.9 nM | C (A compound having a KD ratio of 0.1 or more and less than 3 is denoted as C) |  | 
CCO[C@@H]1C[C@H]2C(=O)NC3(CCC3)C(=O)N(C)[C@@H](C3CCCC3)C(=O)N(C)[C@H](C(=O)N3CCOCC3)CC(=O)N(C)[C@@H](CC(C)C)C(=O)N[C@@H]([C@@H](C)CC)C(=O)N(C)CC(=O)N(C)[C@H]3C/C=C\CCN(C3=O)[C@@H](Cc3ccc(C(F)(F)F)cc3)C(=O)N(C)CC(=O)N[C@@H](CCc3ccc(C(F)(F)F)c(Cl)c3)C(=O)N2C1 [PP0825, (2S,8S,12R,14S,20S,23S,27S,30S,36S,38Z)-8-[2-[3-chloro-4-(trifluoromethyl)phenyl]ethyl]-20-cyclopentyl-12-ethoxy-27-isobutyl-4,19,22,26,32,35-hexamethyl-30-[(1S)-1-methylpropyl]-23-(morpholine-4-carbonyl)-2-[[4-(trifluoromethyl)phenyl]methyl]spiro[1,4,7,10,16,19,22,26,29,32,35-undecazatricyclo[34.5.1.0^10,14]dotetracont-38-ene-17,1′-cyclobutane]-3,6,9,15,18,21,25,28,31,34,42-undecone] | A (a compound having 10 or more and less than 20 is denoted as A) |  | A (a compound having 10 or more and less than 20 is denoted as A) | 0.23 nM | 
CCO[C@@H]1C[C@H]2C(=O)NC3(CCC3)C(=O)N(C)[C@@H](C3CCCC3)C(=O)N(C)[C@H](C(=O)N(C)C)CC(=O)N(C)[C@@H](Cc3ccccc3)C(=O)N[C@@H]([C@@H](C)CC)C(=O)N(C)CC(=O)N(C)[C@H]3C/C=C\CCN(C3=O)[C@@H](Cc3ccc(C(F)(F)F)cc3)C(=O)N(C)CC(=O)N[C@@H](CCc3cc(F)c(C(F)(F)F)c(F)c3)C(=O)N2C1 [PP1116, (2S,8S,12R,14S,20S,23S,27S,30S,36S,38Z)-27-benzyl-20-cyclopentyl-8-[2-[3,5-difluoro-4-(trifluoromethyl)phenyl]ethyl]-12-ethoxy-N,N,4,19,22,26,32,35-octamethyl-30-[(1S)-1-methylpropyl]-3,6,9,15,18,21,25,28,31,34,42-undecaoxo-2-[[4-(trifluoromethyl)phenyl]methyl]spiro[1,4,7,10,16,19,22,26,29,32,35-undecazatricyclo[34.5.1.0^10,14]dotetracont-38-ene-17,1′-cyclobutane]-23-carboxamide] | A (a compound having 10 or more and less than 20 is denoted as A) |  | A (a compound having 10 or more and less than 20 is denoted as A) | 0.069 nM | 
CCO[C@@H]1C[C@H]2C(=O)NC3(CC(C)(C)C3)C(=O)N(C)[C@@H](C(CC)CC)C(=O)N(C)[C@H](C(=O)N(C)C)CC(=O)N(C)[C@@H](C)C(=O)N[C@@H]([C@@H](C)CC)C(=O)N(C)CC(=O)N(C)[C@H]3C/C=C\CCN(C3=O)[C@@H](Cc3ccc(C)cc3)C(=O)N(C)CC(=O)N[C@@H](CCc3ccc(C(F)(F)F)c(Cl)c3)C(=O)N2C1 [PP2150] | A (a compound having 10 or more and less than 20 is denoted as A) |  | AA (a compound having 20 or more is denoted as AA) | 3.8 nM | 
CC[C@H](C)[C@@H]1NC(=O)[C@H](CC(C)C)N(CC)C(=O)C[C@@H](C(=O)N2CCOCC2)N(C)C(=O)[C@H](C2CCCC2)N(C)C(=O)C2(CCCC2)NC(=O)[C@@H]2CCCN2C(=O)[C@H](CCc2cc(F)c(C(F)(F)F)c(F)c2)NC(=O)CN(C)C(=O)[C@H](Cc2ccc(C(F)(F)F)cc2)N2CCCCC[C@@H](C2=O)N(C)C(=O)CN(C)C1=O [PP0513] |  | 6.2 nM |  |  | HRAS/KRAS (ratio of KD value with respect to HRAS to KD value with respect to KRAS) [1]: B (a compound having 3 or more and less than 10 is denoted as B); NRAS/KRAS (ratio of KD value with respect to NRAS to KD value with respect to KRAS) [3]: B (a compound having 3 or more and less than 10 is denoted as B)
CCCN(C)C(=O)[C@@H]1CC(=O)N(C)[C@@H](C(C)C)C(=O)N[C@@H]([C@@H](C)CC)C(=O)N(C)CC(=O)N(C)[C@H]2C/C=C\CCN(C2=O)[C@@H](Cc2ccc(C(F)(F)F)cc2)C(=O)N(C)CC(=O)N[C@@H](CCc2ccc(C(F)(F)F)c(OC)c2)C(=O)N2C[C@@H](C)C[C@H]2C(=O)NC2(CCC2)C(=O)N(C)[C@@H](C2CCCC2)C(=O)N1C [PP2067] | A (a compound having 10 or more and less than 20 is denoted as A) |  | AA (a compound having 20 or more is denoted as AA) | 0.24 nM | 
CCCN1C(=O)[C@@H]2CCN2C(=O)[C@H](C)N(C)C(=O)[C@H]([C@@H](C)CC)NC(=O)[C@H](CC(C)C)N(C)C(=O)C[C@@H](C(=O)N(C)C)NC(=O)[C@H](C2CCCC2)N(C)C(=O)C2(CCCC2)NC(=O)[C@@H]2C[C@@H](OCC)CN2C(=O)[C@H](CCc2ccc(C(F)(F)F)c(Cl)c2)NC(=O)CN(C)C(=O)[C@@H]1Cc1ccc(C(F)(F)F)cc1 [PP0383] ([NMeL]I[NMeA][Aze][NPrPhe(4-CF3)][Sar][hPhe(3-Cl-4-CF3)][Hyp](Et)[Ac5c][NMeGly(cPent)]D-NMe2; lactam N-11) | B (a compound having 3 or more and less than 10 is denoted as B) | 0.24 nM | C (A compound having a KD ratio of 0.1 or more and less than 3 is denoted as C) |  | 
CCO[C@@H]1C[C@H]2C(=O)NC3(CC(C)(C)C3)C(=O)N(C)[C@@H](C(CC)CC)C(=O)N(C)[C@H](C(=O)N3CCCC3)CC(=O)N(C)[C@@H](COC)C(=O)N[C@@H]([C@@H](C)CC)C(=O)N(C)CC(=O)N(C)[C@H]3C/C=C\CCN(C3=O)[C@@H](Cc3ccc(C(F)(F)F)cc3)C(=O)N(C)CC(=O)N[C@@H](CCc3cc(F)c(C(F)(F)F)c(F)c3)C(=O)N2C1 [PP2123] | A (a compound having 10 or more and less than 20 is denoted as A) |  | A (a compound having 10 or more and less than 20 is denoted as A) | 0.25 nM | 
CCO[C@@H]1C[C@H]2C(=O)NC3(CCC3)C(=O)N(C)[C@@H](C3CCCC3)C(=O)N(C)[C@H](C(=O)N(C)C)CC(=O)N(C)[C@@H](CC)C(=O)N[C@@H]([C@@H](C)CC)C(=O)N(C)CC(=O)N(C)[C@H]3CCCCN(C3=O)[C@@H](Cc3ccc(C(F)(F)F)cc3)C(=O)N(C)CC(=O)N[C@@H](CCc3cc(F)c(C(F)(F)F)c(F)c3)C(=O)N2C1 [PP0693] |  | 0.016 nM |  |  | HRAS/KRAS (ratio of KD value with respect to HRAS to KD value with respect to KRAS) [1]: C (A compound having a KD ratio of 0.1 or more and less than 3 is denoted as C); NRAS/KRAS (ratio of KD value with respect to NRAS to KD value with respect to KRAS) [3]: C (A compound having a KD ratio of 0.1 or more and less than 3 is denoted as C)
CCCN1C(=O)CN(C)C(=O)CNC(=O)[C@H]([C@@H](C)CC)NC(=O)[C@H](CC(C)C)N(C)C(=O)C[C@@H](C(=O)N2CCOCC2)NC(=O)[C@H](C2CCCC2)N(C)C(=O)C2(CCC2)NC(=O)[C@@H]2C[C@@H](OCC)CN2C(=O)[C@H](CCc2ccc(C(F)(F)F)c(Cl)c2)NC(=O)CN(C)C(=O)[C@@H]1Cc1ccc(C(F)(F)F)cc1 [PP0330] ([NMeL]IG[Sar][NPrPhe(4-CF3)][Sar][hPhe(3-Cl-4-CF3)][Hyp](Et)[Ac4c][NMeGly(cPent)]D-Morpholide; lactam N-11) | C (A compound having a KD ratio of 0.1 or more and less than 3 is denoted as C) | 0.95 nM | B (a compound having 3 or more and less than 10 is denoted as B) |  | 
CC[C@H](C)[C@@H]1NC(=O)[C@H](CC2CC2)N(C)C(=O)C[C@@H](C(=O)N(C)C)N(C)C(=O)[C@H](C2CCCC2)N(C)C(=O)C2(CCC2)NC(=O)[C@@H]2C[C@@H](F)CN2C(=O)[C@H](CCc2cc(F)c(C(F)(F)F)c(F)c2)NC(=O)CN(C)C(=O)[C@H](Cc2ccc(C(F)(F)F)cc2)N2CC/C=C\C[C@@H](C2=O)N(C)C(=O)CN(C)C1=O [PP1497, (2S,8S,12R,14S,20S,23S,27S,30S,36S,38Z)-20-cyclopentyl-27-(cyclopropylmethyl)-8-[2-[3,5-difluoro-4-(trifluoromethyl)phenyl]ethyl]-12-fluoro-N,N,4,19,22,26,32,35-octamethyl-30-[(1S)-1-methylpropyl]-3,6,9,15,18,21,25,28,31,34,42-undecaoxo-2-[[4-(trifluoromethyl)phenyl]methyl]spiro[1,4,7,10,16,19,22,26,29,32,35-undecazatricyclo[34.5.1.0^10,14]dotetracont-38-ene-17,1′-cyclobutane]-23-carboxamide] |  |  |  |  | HRAS/KRAS (ratio of KD value for HRAS to KD value for KRAS) ([1]; KD ratio class): A (a compound having 10 or more and less than 20 is denoted as A); Kd ([2]; SPR, Single Cycle Kinetics, 1:1 binding model): 0.022 nM; NRAS/KRAS (ratio of KD value for NRAS to KD value for KRAS) ([3]; KD ratio class): A (a compound having 10 or more and less than 20 is denoted as A)
